Data from the NIST ThermoML archive (doi:10.1016/j.fluid.2004.10.027).
± gives the expanded uncertainty stated by the source.

Assays:
[1] = refractive index (Na D-line) (dimensionless); conditions: 298.15 K; 101.33 kPa; Liquid; Standard Abbe refractometry
[2] = Liquid; for mass density: 298.15 K, 101.33 kPa

| Structure (SMILES) | refractive index [1] | mass density [2] | other results |
| --- | --- | --- | --- |
| COCCOC [1,2-dimethoxyethane] | 1.3781 ± 0.0007 | 863.7 ± 1.8 kg/m3 | vapor or sublimation pressure ([2]; 357.05 K): 95.8 ± 4.8 kPa |
| Cc1ccccc1C [1,2-dimethylbenzene] | 1.503 ± 0.0007 | 875.9 ± 1.7 kg/m3 | vapor or sublimation pressure ([2]; 415.55 K): 95.8 ± 4.8 kPa |
| Cc1cccc(C)c1 [1,3-dimethylbenzene] | 1.4946 ± 0.0007 | 860.1 ± 1.8 kg/m3 | vapor or sublimation pressure ([2]; 410.35 K): 95.8 ± 4.8 kPa |
| Cc1ccc(C)cc1 [1,4-dimethylbenzene] | 1.4933 ± 0.0007 | 865.6 ± 4.7 kg/m3 | vapor or sublimation pressure ([2]; 409.35 K): 95.8 ± 4.8 kPa |
| O=C1CCCCC1 [cyclohexanone] | 1.451 ± 0.0007 | 945.1 ± 1.1 kg/m3 | vapor or sublimation pressure ([2]; 426.45 K): 95.8 ± 4.8 kPa |

The next lines start with results.

| refractive index [1] | mass density [2] | Structure (SMILES) | other results |
| --- | --- | --- | --- |
| 1.4097 ± 0.0007 | 726.4 ± 2.9 kg/m3 | CCCCCCCCCC [decane] | vapor or sublimation pressure ([2]; 445.25 K): 95.8 ± 4.9 kPa |
| 1.4072 ± 0.0007 | 889.2 ± 4.7 kg/m3 | C1CCOC1 [tetrahydrofuran] | vapor or sublimation pressure ([2]; 337.55 K): 95.8 ± 4.8 kPa |
